Laboratory results reported in US10377828B2, “Combination therapy for neoplasia treatment” (Boehringer Ingelheim International GmbH, priority 2013, dated 2019).
Entries after “also recorded” stand apart in the source; their conditions may differ.

How the values were obtained:
Type in all cases: cell-based, human
VCaP cells [1] = experiment: 2D cell proliferation assay (CellTiter-Glo); details: 10% FCS-containing growth medium, 5 days, single agent or combination
Procedure: (§1) The following method was used to determine the inhibitory effect of IGF ligand-neutralizing mAbs and androgen signaling inhibitors on the growth of prostate cancer cell lines. Assays were performed in cell growth medium containing 10% serum.
(§2) Adherent cells were detached with trypsin/EDTA solution (GIBCO, #043-9031 FU), resuspended in growth medium, centrifuged, resuspended in assay medium (supplemented with 10% heat inactivated FCS and 2 mM L-glutamine) and diluted to 5,000-40,000 cells per mL. 100 μL/well cell suspension was added to each well of a sterile flat-bottom white 96-well plate (PerkinElmer, #6005280) and plates were incubated overnight in a humidified incubator set at +37° C. and 5% CO2. On the next day supernatants were aspirated and 35 μL/well assay medium was added to all wells.
(§3) Serial dilutions of IGF mAb_1 and mAb_2 (1 μM highest concentration), MDV-3100 (10 μM highest concentration), abiraterone acetate (100 μM highest concentration) were prepared on a separate plate in assay medium (no growth factors or hormones supplemented). All agents were tested as single agents or in combination. All samples were tested in triplicate wells (100 μL/well assay). Plates were incubated for 5 days in a humidified incubator at +37° C. and 5% CO2. After this incubation period, CellTiter-Glo buffer, substrate and test plates were equilibrated to RT. CellTiter-Glo is a bioluminescent assay (Promega, #G7571) designed to determine the number of viable cells in culture, in which the generation of a luminescent signal is proportional to the amount of ATP present in cells. 100 μL of freshly mixed CellTiter-Glo reagent was added to each well. After 2 min on an orbital shaker (MTS 2/4, IKA) and 10 min incubation at RT, luminescence was recorded (luminescence reader (Genios Pro, Tecan or Victor X4, Perkin Elmer), integration time 1 sec).

MDA PCa 2b cells = experiment: 2D cell proliferation assay (CellTiter-Glo); details: 10% FCS-containing growth medium, 5 days, single agent or combination
Procedure: as §1, §2, §3

DUCaP cells = experiment: 2D cell proliferation assay (CellTiter-Glo); details: 10% FCS-containing growth medium, 5 days, single agent or combination
Procedure: as §1, §2, §3

VCaP cells [2] = experiment: 3D soft agar cell proliferation assay; details: single agent or combination
Procedure: IGF mAb_2 was used for the treatment of VCaP cells in FIG. 2B. FIG. 2C (IGF mAb_1) and FIG. 2D (IGF mAb_2) show the results of MDA PCa 2b cells. […] In a 3D soft agar cell proliferation assay (FIG. 2G), VCaP cells were treated with abiraterone acetate and IGF mAb_2.

VCaP cells [3] = experiment: Thymidine incorporation assay; details: 96 hours, 10 μM MDV-3100 and/or 1 μM IGF mAb_1, compared to untreated controls
Procedure: VCaP cells were treated with 1 μM of IGF mAb_1 and 10 μM of MDV-3100 and the combination of both agents and incubated as triplicates in flat-bottom 96-well plates for 96 hours at a density of 5×10^4 cells per well, in the absence of R1881. For the last 24 hours of incubation, ^3H-thymidine (0.4 μCi/well; PerkinElmer, NET355001 MC) was added. Afterwards, the plates were frozen and incubated at −20° C. for 24 h. For harvesting, the plates were thawed and 40 μL Trypsin was added to each well to detach the cell fragments. The suspension was transferred to filter plates. The plates were then washed three times with distilled water and dried at 60° C. for 3 h. 25 μL per well Microscint were added and the proliferation rate was determined by measuring thymidine incorporation (CPM; counts per minute) using a liquid scintillation counter (1450 Microbeta Wallac Trilux, Perkin-Elmer).

VCaP cells [4] = experiment: Cell cycle analysis using flow cytometry (propidium iodide)
Procedure: 4×10^5 VCaP cells were treated with 1 μM of IGF mAb_1 and 10 μM of MDV-3100, and the combination of both agents, and incubated in 6-well plates at 37° C. for 24 h, 48 h and 72 h. Subsequently, the supernatant was transferred to FACS tubes, adherent cells were detached with trypsin and collected in the respective FACS tubes. After centrifugation, the medium was discarded and the cell pellet was fixed in ice-cold 70% ethanol for a minimum of 2 h at 4° C. After removing the ethanol entirely, fixed cells were stained with propidium iodide (10 μg/ml; Sigma; P4864-10 mL) in a hypotonic buffer solution (0.1% sodium citrate, 0.1% (v/v) triton X-100, 100 μg/ml DNase-free RNase A) and incubated in the dark at room temperature for 30 minutes. Cells were analyzed using the Becton Dickinson FACS Canto II Flow cytometer and data was evaluated with the FACS Diva software.

[5] = tested on: AKT phosphorylation, PARP cleavage, p21, CDK2, Cyclin E, PCNA in VCaP cells; experiment: Western blot time course of AKT phosphorylation, apoptosis and cell cycle regulators
Procedure: One×10^6 and 4×10^6 cells were plated in 6-well plates and 10 cm dishes, respectively, in medium containing 10% […] and AR signaling inhibitor. […] Cell lysates were snap frozen and stored at −80° C.
(§4) Western blotting was performed loading 30-50 μg of total protein lysates on a 4-12% Bis-Tris PAG (Bio Rad) and blotting with the Bio Rad trans-Blot® Turbo system using a PVDF membrane. […] Cell cycle regulators and markers of proliferation and apoptosis were analyzed using the following antibodies: p21 Waf1/Cip1 (12D1; #2947, Cell Signaling; 1:1000), CDK2 (78B2; #2546, Cell Signaling; 1:1000), Cyclin E (C-19; sc-198, Santa Cruz; 1:1000), PCNA (#2586, Cell Signaling; 1:2000), and PARP (#9542, Cell Signaling; 1:1000).
(§5) Antibody dilutions were prepared in 5% BSA or 5% non-fat dry milk in TBS-0.5% Tween20 (TBS-T). Following washes in TBS-T membranes were incubated with a polyclonal HRP-conjugated goat anti-rabbit secondary antibody (DAKO, #P0448) for 1 hour and after further washes in TBS-T antibody reactivity was detected by means of ECL/Super ECL (GE Healthcare) and exposure on ImageQuant LAS4000. […]

[6] = tested on: IGF-1R, AR, PTEN levels and AKT-Ser473 phosphorylation in VCaP, MDA PCa 2b and DUCaP cells; experiment: Western blot protein analysis after 24 hours of treatment; details: 24 hours treatment
Procedure: One×10^6 and 4×10^6 cells were plated in 6-well plates and 10 cm dishes, respectively, in medium containing 10% heat-inactivated FCS and after over night incubation the cells were treated with 1 μM of MDV-3100 and 100 nM of IGF mAb_1 or a combination of antibody and AR signaling inhibitor. After 24 hours the cells were lyzed on the plates, total protein was isolated and protein concentration was determined by Bradford assay. Cell lysates were snap frozen and stored at −80° C.
as §4, §5

VCaP cells [7] = experiment: Assessment of caspase 3 activity (apoptosis induction); details: 10 μM MDV-3100 and/or 1 μM mAb, up to 96 hours
Procedure: To acquire live cell images of cells undergoing caspase-3/7 mediated apoptosis upon treatment with different concentrations of MDV-3100, IGF mAb_1, and the combination of both agents, the CellPlayer™ 96-Well Kinetic Caspase-3/7 Reagent (Essen BioScience; #4440) was used. 50000 VCaP cells/100 μl/well were seeded and treated on the next day with the respective concentrations of both agents in growth medium in the absence of R1881. The Caspase-3/7 reagent was diluted to a final concentration of 5 μM in 100 μl per well of growth medium and added to the medium. The plate was placed within a microplate tray into the IncuCyte™ 2011A and 3 images per well were acquired every 4 hours for 7 days using the phase contrast and fluorescence channels.

VCaP cells [8] = experiment: Analysis of cellular doubling time; details: 10 μM MDV-3100, compared to untreated controls
Procedure: 3×10^5 cells/well VCaP cells were seeded in 2 mL cell culture medium per well. 24 hrs post seeding the cell culture medium was removed and replaced with DMEM+10% FCS without R1881. 24 hr following the medium change the pre-treatment wells were harvested and counted with the Beckman Coulter™ Vi-CELL XR 2.03, and 10 μM of MDV-3100 was added to the remaining cells. Four times every 24 hr VCaP cell number was determined in 3 wells for each time point. The mean value was calculated from these triplicates. To determine the generation time, following formula is used: […]

SMILES | effect on 2D cell proliferation (in words) (VCaP cells [1]) | effect on 2D cell proliferation (in words) (MDA PCa 2b cells) | effect on 2D cell proliferation (in words) (DUCaP cells) | effect on 3D cell proliferation (in words) (VCaP cells [2]) | reduction of proliferative activity (thymidine incorporation) (VCaP cells [3]) | G1/G0 population (VCaP cells [4]; 10 μM MDV-3100, compared to untreated controls) | sub-G1 apoptotic cell population (VCaP cells [4]; 24 h, 48 h and 72 h, 10 μM MDV-3100 and/or 1 μM mAb) | p21 levels ([5]; 10 μM MDV-3100, at 8 and 24 hours) | PARP cleavage ([5]; 10 μM MDV-3100 and/or 1 μM IGF mAb_1, 8 h, 24 h, 48 h and 72 h) | AR protein levels [6] | IGF-1R levels [6] | induction of caspase 3 activity / apoptosis (in words) (VCaP cells [7]) | cellular doubling time (generation time) (VCaP cells [8])
CC(=O)O[C@H]1CC[C@@]2(C)C(=CC[C@@H]3[C@@H]2CC[C@]2(C)C(c4cccnc4)=CC[C@@H]32)C1 [abiraterone acetate] | inhibition of cell proliferation at higher concentrations | inhibition of cell proliferation at higher concentrations | inhibition of cell proliferation at higher concentrations | inhibition of cell proliferation at higher concentrations | – | – | – | – | – | – | – | – | –
CNC(=O)c1ccc(N2C(=S)N(c3ccc(C#N)c(C(F)(F)F)c3)C(=O)C2(C)C)cc1F [MDV-3100, 4-{3-[4-cyano-3-(trifluoromethyl)phenyl]-5,5-dimethyl-4-oxo-2-sulfanylideneimidazolidin-1-yl}-2-fluoro-N-methylbenzamide] | inhibition of cell proliferation | inhibition of cell proliferation | inhibition of cell proliferation | – | approximately 50% | increased | did not induce; also recorded: does not change | increased | did not induce | slightly increased | slightly decreased | did not induce caspase 3 activity | prolonged cellular doubling time
